“And” between values parts separate entries of the source, which are not always exact repeats. Identical values can stand only once.
Legend:
mouse GPR139 = biological target: T1, mouse GPR139 (Mus musculus, UniProt Q80UC8); assay: GTPγS binding dose response study, mouse GPR139 co-transfected with GO2Q into COS7 cells; format: biochemical; details: mouse GPR139, FIG. 2C and 2D
T1 construct: expressed in transfected cells; host or cells: COS7 (membranes)
T1 sequence (Q80UC8 1-345): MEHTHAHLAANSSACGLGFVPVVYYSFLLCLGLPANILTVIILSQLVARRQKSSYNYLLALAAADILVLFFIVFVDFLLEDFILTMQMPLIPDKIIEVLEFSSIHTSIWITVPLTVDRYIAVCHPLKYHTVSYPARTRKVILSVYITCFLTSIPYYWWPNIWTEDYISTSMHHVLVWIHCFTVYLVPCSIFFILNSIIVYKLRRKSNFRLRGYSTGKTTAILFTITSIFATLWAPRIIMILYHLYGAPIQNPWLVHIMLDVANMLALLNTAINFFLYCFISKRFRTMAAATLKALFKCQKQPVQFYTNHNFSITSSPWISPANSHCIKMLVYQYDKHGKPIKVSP
Text: (§1) FIG. 2-FIG. 2F: Tryptophan, phenylalanine, and their derivatives activate GPR139. Human (FIG. 2A and FIG. 2B) or mouse (FIG. 2C and FIG. 2D) GPR139 were co-transfected with chimeric G-protein GO2Q into COS7 cells. Cell membranes from transfected cells were used in GTPγS binding studies using various ligands at different concentrations to stimulate GPR139. FIG. 2E and FIG. 2F show control experiments in the dose response studies of Example 1.

GPR139 [1] = biological target: T2, GPR139 (Homo sapiens, UniProt Q6DWJ6); assay: Calcium mobilization assay (FLIPR), GPR139 expressed in HEK293 cells; format: cell-based; set-up: expressed in transfected cells; host or cells: HEK293 (transient); details: similar to GTPγS binding studies
T2 sequence (Q6DWJ6 1-353): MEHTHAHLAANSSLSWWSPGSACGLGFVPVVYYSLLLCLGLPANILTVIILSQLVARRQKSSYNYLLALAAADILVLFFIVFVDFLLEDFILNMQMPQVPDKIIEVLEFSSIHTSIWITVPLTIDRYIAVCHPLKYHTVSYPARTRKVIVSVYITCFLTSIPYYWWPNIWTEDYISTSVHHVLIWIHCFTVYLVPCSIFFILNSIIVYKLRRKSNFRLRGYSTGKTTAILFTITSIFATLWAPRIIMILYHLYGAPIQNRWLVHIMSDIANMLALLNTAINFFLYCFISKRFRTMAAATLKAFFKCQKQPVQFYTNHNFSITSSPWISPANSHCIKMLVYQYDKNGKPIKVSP
Description: FIG. 3A and FIG. 3B: Provides the results of experiments conducted to determine whether Trp and its derivatives (FIG. 3A) and Phe and its derivatives (FIG. 3B) stimulate Ca^2+ mobilization in HEK293 cells expressing GPR139.
The active compounds were also tested in a calcium mobilization assay (FLIPR® assay). For these experiments human GPR139 was transiently expressed in HEK293 cells and calcium mobilization was stimulated using L-Trp, L-Phe or their derivatives. […] The concentrations of L-Trp and L-Phe in many cell culture media (for instance DMEM is about 80 μM and 750 μM respectively) are close to the EC50 values of L-Trp and L-Phe for GPR139. […] This may explain why GPR139 appeared constitutively active when recombinantly expressed in mammalian cells.
About 300 additional phenylalanine analogues have been tested for GPR139 activation using a calcium mobilization (FLIPR®) assay. The results of these experiments indicate that many of these analogues can also activate GPR139. Table 4 lists certain phenylalanine analogues that have been determined to activate GPR139 by calcium mobilization at a concentration of 300 μM (calcium mobilization is expressed as percentage of that observed for L-phenylalanine).

GPR139 [2] = biological target: T2, GPR139; assay: GTPγS binding dose response study, human GPR139 co-transfected with GO2Q into COS7 cells; format: biochemical; set-up: expressed in transfected cells; host or cells: COS7 (membranes); details: human GPR139, FIG. 2A and 2B
Text: as §1

GO2Q alone = assay: GTPγS binding assay, control COS7 membranes expressing GO2Q alone (Ct-GO2Q); format: biochemical; details: 1 mM final concentration; COS7 membranes expressing GO2Q alone; single wells of triplicate
Description: (§2) In order identify the ligands for GPR139 two improvements in the detection assay were made to allow for the ligands to be detected. First, we chose to use a GTPγS binding assay instead of using live cultured cells. The GTPγS binding assay is a cell free system that uses the cell membrane of the cell(s) of interest rather than the live cell(s). One advantage of this assay is that potential ligands present in the cell culture media are washed away when the cell membrane is prepared. This reduces the basal level of signal and increase the chance of detecting receptor ligands when assessing compounds that activate the receptor. Second, a GO2Q chimeric G-protein was created to be co-expressed with GPR139 in order to increase the signal-to-noise ratio in the GTPγS binding assay. Historically, the Gi, Go coupled GPCRs offer much greater signal-to-noise ratio in GTPγS binding studies. For Gs and Gq coupled GPCRs, although ligand-stimulated specific signals can be detected in a GTPγS binding assay, the signal-to-noise ratios are often very small. To address this a chimeric GO2-Gq chimeric G-protein, GO2Q, with the N-terminus from Go2 protein and the C-terminus from Gq protein.
(§3) To test for compounds that activate GPR139, different amino acids and their derivatives (Table 2) were tested as ligands in the GTPγS binding assay using cell membranes from COS7 cells co-expressing GPR139 and GO2Q. Cell membrane from COS7 cells expressing GO2Q alone or co-expressing other GPCRs were also tested in GTPγS binding assay in parallel as controls. Each compound was tested in triplicate.

GPR139 [3] = biological target: T2, GPR139; assay: GTPγS binding assay, single-concentration screen, COS7 membranes co-expressing GPR139 and GO2Q; format: biochemical; set-up: expressed in transfected cells; host or cells: COS7 (membranes); details: for Activation of GPR139 in the GTPγS binding assay: 1 mM; for Activation levels of GPR139 (GTPγS binding), GPR139-GO2Q: 1 mM final concentration, COS7 membranes co-expressing GPR139 and GO2Q, single wells of triplicate
Description: as §2, §3

Compound	Dose-responsive activation of GPR139 (GTPγS binding) (mouse GPR139)	Potency in calcium mobilization relative to L-Trp and L-Phe (GPR139 [1])	Dose-responsive activation of GPR139 (GTPγS binding) (GPR139 [2])	Activation levels (GTPγS binding), Ct-GO2Q (GO2Q alone)	Activation of GPR139 in the GTPγS binding assay (GPR139 [3])	Activation levels of GPR139 (GTPγS binding), GPR139-GO2Q (GPR139 [3])
Cn1cc(C[C@@H](N)C(=O)O)c2ccccc21 [1-methy-D-Try, 1-methyl-D-Trp]	specifically activate GPR139 in a dose-responsive manner	higher potencies	specifically activate GPR139 in a dose-responsive manner			
Cn1cc(C[C@H](N)C(=O)O)c2ccccc21 [1-methy-L-Trp, 1-methyl-L-Trp]	specifically activate GPR139 in a dose-responsive manner	higher potencies	specifically activate GPR139 in a dose-responsive manner			
CC(N)Cc1ccccc1 (centres unmarked) [Amphetamine]	specifically activate GPR139 in a dose-responsive manner		specifically activate GPR139 in a dose-responsive manner	2331 and 2132 and 2001	activated GPR139	7242 and 6744 and 7263
N[C@@H](CSSC[C@H](N)C(=O)O)C(=O)O [Cystine]				2242 and 2149 and 2229		2501 and 2652 and 2258
N[C@H](Cc1ccccc1)C(=O)O [D-Phe, D-phenylalanine]	specifically activate GPR139 in a dose-responsive manner		specifically activate GPR139 in a dose-responsive manner			
N[C@H](Cc1c[nH]c2ccccc12)C(=O)O [D-Trp, D-tryptophan]	specifically activate GPR139 in a dose-responsive manner		specifically activate GPR139 in a dose-responsive manner			
NCCc1ccc(O)c(O)c1 [DA]				2250 and 2213 and 2319		2688 and 2825 and 2708
NC(=O)CC[C@H](N)C(=O)O [Gln]				2181 and 2327 and 2336		2583 and 2525 and 2766
N[C@@H](CCC(=O)O)C(=O)O [Glu]				2242 and 2310 and 2311		2847 and 2837 and 2841
NCC(=O)O [Gly]				1936 and 2133 and 2289		2560 and 2505 and 2414
NCCc1c[nH]cn1 [HA, histamine]				2186 and 2204 and 2199		2737 and 2863 and 2899
O=C(O)[C@@H]1C[C@@H](O)CN1 [HO-Pro]				2166 and 2152 and 2189		2825 and 2797 and 3109
N[C@@H](Cc1c[nH]cn1)C(=O)O [His]				2308 and 2259 and 2197		2640 and 2499
CC[C@H](C)[C@H](N)C(=O)O [Ile]				2266 and 2222 and 2253		2760 and 2542 and 2903
CC(C)C[C@H](N)C(=O)O [Leu]				2194 and 2213 and 2167		2621 and 2544 and 2437
NCCCC[C@H](N)C(=O)O [Lys]				2400 and 2138 and 2041		2433 and 2617 and 2589
CSCC[C@H](N)C(=O)O [Met]				2173 and 2307 and 2276		2657 and 2829 and 2802
NCC(O)c1ccc(O)cc1 (centres unmarked) [Octopamine]				2087 and 2140 and 2142		2554 and 2675 and 2831
O=C(O)[C@@H]1CCCN1 [Pro]				2256 and 2235 and 2329		2719 and 2657 and 2786
N[C@@H](CO)C(=O)O [Ser]				1975 and 2036 and 2164		2605 and 2458 and 2545
NCCc1c[nH]c2ccc(O)cc12 [Seretonin]				2356 and 2154 and 2332		2839 and 2852 and 2920
C[C@@H](O)[C@H](N)C(=O)O [Thr]				2210 and 2213 and 2008		2547 and 2507 and 2558
NCCc1c[nH]c2ccccc12 [Tryptamine]	specifically activate GPR139 in a dose-responsive manner		specifically activate GPR139 in a dose-responsive manner	2025 and 2048 and 2088	activated GPR139	6757 and 7686 and 7742
N[C@@H](Cc1ccc(O)cc1)C(=O)O [Tyr]				2192 and 2191 and 2186		2752 and 2715 and 2921
NCCc1ccc(O)cc1 [Tyramine]				2132 and 2277 and 2369		2883 and 2932 and 2873
CC(C)[C@H](N)C(=O)O [Val]				2072 and 2083 and 1977		2632 and 2689 and 2533
NCCc1ccccc1 [b-phenylethylamine, β-phenylethylamine]	specifically activate GPR139 in a dose-responsive manner		specifically activate GPR139 in a dose-responsive manner	2334 and 2065 and 2024	activated GPR139	6705 and 7099 and 6634
